According to publication PMC9046089, “CCNE1 amplification is synthetic lethal with PKMYT1 kinase inhibition” (Nature, 2022):
Several values for one entry are separate records, joined by “and”; a condition that tells them apart may be missing. Equal values may be shown once.

How the values were obtained:
human recombinant PKMYT1 = target: T1, human recombinant PKMYT1 (Homo sapiens, UniProt Q99640); assay: ADP-Glo kinase assay of PKMYT1 catalytic activity; format: biochemical
T1 construct: full-length human GST–PKMYT1 recombinant protein; GST (N); purchased Thermo Fisher Scientific A33387
T1 sequence (Q99640 1-499): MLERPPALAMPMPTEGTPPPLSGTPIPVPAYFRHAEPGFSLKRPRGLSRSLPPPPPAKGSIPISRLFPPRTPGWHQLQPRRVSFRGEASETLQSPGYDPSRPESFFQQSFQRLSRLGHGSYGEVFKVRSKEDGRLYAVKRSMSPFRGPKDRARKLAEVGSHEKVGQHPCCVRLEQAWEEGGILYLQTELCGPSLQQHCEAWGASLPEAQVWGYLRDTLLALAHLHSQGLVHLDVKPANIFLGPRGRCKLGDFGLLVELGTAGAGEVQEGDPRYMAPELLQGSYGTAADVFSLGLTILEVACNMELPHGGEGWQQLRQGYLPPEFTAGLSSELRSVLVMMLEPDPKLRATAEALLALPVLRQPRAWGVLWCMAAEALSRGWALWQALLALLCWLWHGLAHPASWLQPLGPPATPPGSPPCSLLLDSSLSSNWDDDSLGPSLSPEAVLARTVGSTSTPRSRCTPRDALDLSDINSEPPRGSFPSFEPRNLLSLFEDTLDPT

cytoplasmic cyclin B = assay: QIBC of cytoplasmic cyclin B intensity in EdU+ cells after HU or gemcitabine; format: cell-based; conditions: 48 h
Protocol: Before collection, cells were pulsed with 20 μM EdU (5-ethynyl-2-deoxyuridine, Life Technologies cat. no. A10044) for 30 min and then washed with PBS and fixed with 4% paraformaldehyde (PFA) in PBS for 15 min at room temperature. Cells were then rinsed with PBS and permeabilized using 0.3% Triton X-100/PBS for 30 min. For chromatin-bound MCM measurements, cells were pre-extracted for 15 min on ice with CSK buffer (300 mM sucrose, 100 mM NaCl, 3 mM MgCl2, 10 mM PIPES pH 7.0, 0.5% v/v Triton-X 100) before PFA fixation. […] Fresh blocking buffer containing primary antibodies was added for 2 h. Cells were rinsed three times with PBS and then blocking buffer, with secondary antibodies and 0.4 μg ml^−1 DAPI (4,6-diamidino-2-phenylindole, Sigma-Aldrich, cat. no. D9542) was added for 1 h. After rinsing with PBS, immunocomplexes were fixed again using 4% PFA/PBS for 5 min.
Cells were fixed, permeabilized and stained in the same manner as immunofluorescence described above. Wells were filled with 200 μl PBS and images were acquired at the Network Biology Collaborative Centre (LTRI) on an InCell Analyzer 6000 automated microscope (GE Life Sciences) with a 20× objective. Image analysis was performed using Cellprofiler 3.1.9 and RStudio v1.2.5019[57] (Supplementary Fig. 4).

[1] = test system: cyclin B, CDK1, CDK1-pT14; assay: Immunoblot of cyclin B, CDK1 and CDK1-pT14 after HU or gemcitabine; conditions: for Quantitation of CDK1 (immunoblot of whole cell lysates) / Quantitation of CDK1-pT14 relative to total CDK1 (immunoblot of whole cell lysates) / Quantitation of cyclin B (immunoblot of whole cell lysates): FT282-hTERT-p53-R175H, DMSO = 1; for levels of cyclin B or CDK1: immunoblot and QIBC; for CDK1 pT14 levels: immunoblot, controlling for total CDK1
HCC1569 cells = assay: Cell proliferation assay (Incucyte growth inhibition, synergy); format: cell-based; conditions: for % growth relative to untreated: RP-6306 0
Text: Per cent confluence relative to a non-treated control was used to evaluate growth inhibition induced by test compounds. […] (https://synergyfinder.fimm.fi).

## Cc1cnc2c(c1)c(C(N)=O)c(N)n2-c1c(C)cccc1C [RP-6421]
Human recombinant PKMYT1; ADP-Glo dose-response
  effect on PKMYT1 catalytic activity: no effect
Human recombinant PKMYT1; c0 (log10 concentration, head mM) 1
  PKMYT1 catalytic activity, ADP-Glo signal: 13700
Human recombinant PKMYT1; c0 (log10 concentration, head mM) -0.57777
  PKMYT1 catalytic activity, ADP-Glo signal: 15400
Human recombinant PKMYT1; c0 (log10 concentration, head mM) -2.18442
  PKMYT1 catalytic activity, ADP-Glo signal: 16550
Human recombinant PKMYT1; c0 (log10 concentration, head mM) -3.8365
  PKMYT1 catalytic activity, ADP-Glo signal: 15000
Human recombinant PKMYT1; c0 (log10 concentration, head mM) -5.64386
  PKMYT1 catalytic activity, ADP-Glo signal: 14750
Human recombinant PKMYT1; c0 (log10 concentration, head mM) -6.93016
  PKMYT1 catalytic activity, ADP-Glo signal: 14350
Human recombinant PKMYT1; c0 (log10 concentration, head mM) -8.53282
  PKMYT1 catalytic activity, ADP-Glo signal: 14150
Human recombinant PKMYT1; c0 (log10 concentration, head mM) -10.0955
  PKMYT1 catalytic activity, ADP-Glo signal: 14900
Human recombinant PKMYT1; c0 (log10 concentration, head mM) -11.6789
  PKMYT1 catalytic activity, ADP-Glo signal: 15800
Human recombinant PKMYT1; c0 (log10 concentration, head mM) -13.2591
  PKMYT1 catalytic activity, ADP-Glo signal: 15500

## Nc1ccn([C@@H]2O[C@H](CO)[C@@H](O)C2(F)F)c(=O)n1 [gemcitabine]
Cytoplasmic cyclin B; FT282-hTERT-p53-R175H CCNE1 high (C3), gemcitabine 5 nM
  fold-change of cytoplasmic cyclin B intensity in EdU+ cells: 1.161 and 1.404 and 1.38
Cytoplasmic cyclin B; FT282-hTERT-p53-R175H WT, gemcitabine 5 nM
  fold-change of cytoplasmic cyclin B intensity in EdU+ cells: 1.346 and 1.467 and 1.135
[1]; 5 nM Gemcitabine
  Quantitation of CDK1 (immunoblot of whole cell lysates): 1.203 and 0.9791 and 1.593
  Quantitation of CDK1-pT14 relative to total CDK1 (immunoblot of whole cell lysates): 1.528 and 2.085 and 1.888
  Quantitation of cyclin B (immunoblot of whole cell lysates): 1.877 and 1.201 and 1.262
[1]
  levels of cyclin B or CDK1: did not detect increased levels
  CDK1 pT14 levels: increased
HCC1569 cells; 0.556 nM gemcitabine, DMSO = 100
  growth relative to DMSO control: 76.36 and 70.43
HCC1569 cells; gemcitabine 0.0524288 nM
  % growth relative to untreated: 96.4701%
HCC1569 cells; gemcitabine 0.131072 nM
  % growth relative to untreated: 85.3567%
HCC1569 cells; gemcitabine 0.32768 nM
  % growth relative to untreated: 85.2938%
HCC1569 cells; gemcitabine 0.8192 nM
  % growth relative to untreated: 45.6374%
HCC1569 cells; gemcitabine 2.048 nM
  % growth relative to untreated: 16.2355%
HCC1569 cells; gemcitabine 5.12 nM
  % growth relative to untreated: 11.6895%
HCC1569 cells; gemcitabine 12.8 nM
  % growth relative to untreated: 9.354%
HCC1569 cells; gemcitabine 32 nM
  % growth relative to untreated: 7.468%
HCC1569 cells; gemcitabine 80 nM
  % growth relative to untreated: 5.95%

## NC(=O)NO [hydroxyurea]
Cytoplasmic cyclin B; FT282-hTERT-p53-R175H CCNE1 high (C3), HU 50 mM (so in the source), listed as HU
  fold-change of cytoplasmic cyclin B intensity in EdU+ cells: 0.9979 and 0.9823 and 1.013
Cytoplasmic cyclin B; FT282-hTERT-p53-R175H CCNE1 high (C3), HU 100 mM (so in the source), listed as HU
  fold-change of cytoplasmic cyclin B intensity in EdU+ cells: 1.038 and 1.0461 and 1.056
Cytoplasmic cyclin B; FT282-hTERT-p53-R175H CCNE1 high (C3), HU 200 mM (so in the source), listed as HU
  fold-change of cytoplasmic cyclin B intensity in EdU+ cells: 1.095 and 1.0628 and 1.094
Cytoplasmic cyclin B; FT282-hTERT-p53-R175H CCNE1 high (C3), HU 400 mM (so in the source), listed as HU
  fold-change of cytoplasmic cyclin B intensity in EdU+ cells: 1.408 and 1.403 and 1.354
Cytoplasmic cyclin B; FT282-hTERT-p53-R175H WT, HU 50 mM (so in the source), listed as HU
  fold-change of cytoplasmic cyclin B intensity in EdU+ cells: 1.011 and 1.029 and 1.0186
Cytoplasmic cyclin B; FT282-hTERT-p53-R175H WT, HU 100 mM (so in the source), listed as HU
  fold-change of cytoplasmic cyclin B intensity in EdU+ cells: 1.025 and 1.031 and 1.053
Cytoplasmic cyclin B; FT282-hTERT-p53-R175H WT, HU 200 mM (so in the source), listed as HU
  fold-change of cytoplasmic cyclin B intensity in EdU+ cells: 1.0835 and 1.059 and 1.12
Cytoplasmic cyclin B; FT282-hTERT-p53-R175H WT, HU 400 mM (so in the source), listed as HU
  fold-change of cytoplasmic cyclin B intensity in EdU+ cells: 1.261 and 1.177 and 1.385
[1]; 400 µM HU, listed as HU
  Quantitation of CDK1 (immunoblot of whole cell lysates): 1.2117 and 1.452 and 2.133
  Quantitation of CDK1-pT14 relative to total CDK1 (immunoblot of whole cell lysates): 1.45 and 1.634 and 1.7444
  Quantitation of cyclin B (immunoblot of whole cell lysates): 1.625 and 1.428 and 1.053
[1]
  levels of cyclin B or CDK1: did not detect increased levels
  CDK1 pT14 levels: increased
